Experiment [1] deals with unfractionated heparin (UFH). Kind of experiment: aPTT clotting assay, UFH 0.2 U/mL in plasma (Example 7). Type of experiment: biochemical. How it is done: aPTT clotting Assay. Unfractionated heparin was mixed with plasma at a final concentration of 0.2 U/mL. […] The ACL Elite Hemostasis analyzer (Beckman Coulter™) was used to add aPTT reagent (HemosIL SynthASil) to supplemented plasma. Clotting was initiated by addition of CaCl2 and time to clot was recorded.

A further experiment concerns enoxaparin (ENOX). Kind of experiment: FXa chromogenic assay (absence of plasma), enoxaparin.
The test system of a further experiment is fondaparinux (FONDAPX). Kind of experiment: FXa chromogenic assay (absence of plasma), fondaparinux.
The mark [2] stands for this setting: enoxaparin 0.1 μg/mL, absence of plasma.
The mark [3] stands for this setting: fondaparinux 0.02 μg/mL, absence of plasma.

Where two headings read alike, the source gives them in different places. Bounds are passed on as bounds.

Description for enoxaparin (ENOX): Human antithrombin was mixed with an anticoagulant agent (a LMWH or fondaparinux); final concentrations were 0.22 μg/mL for the LMWHs and 0.07 μg/mL for fondaparinux. […] Absorbance was read every 30 seconds over a 4 minute period in a SpectraMax 250 instrument (Molecular Devices, Inc.). EC50 values are determined by a curve-fit program (SoftMax Pro) using the following formula:
FXa Chromogenic Assay (absence of plasma). Human antithrombin was mixed with an anticoagulant (a LMWH or fondaparinux); final concentrations were 0.1 μg/mL for the LMWHs and 0.02 μg/mL for fondaparinux. […] Absorbance was read every 30 seconds over a 4 minute period in a SpectraMax 250 instrument (Molecular Devices Inc.™) The slope of absorbance vs time was calculated for each compound concentration. EC50 values were determined using a curve fit program (GraphPad Prism 5).

`COc1ccc(NC(=O)[C@H](CCCCN)NC(=O)c2cc(NC(=O)[C@H](CCCCN)NC(=O)c3cc(NC(=O)[C@H](CCCCN)NC(=O)c4cc(NC(=O)[C@@H](N)CCCCN)ccc4OC)ccc3OC)ccc2OC)cc1C(=O)N[C@@H](CCC(=O)O)C(=O)O` [Compound 145]: the “UFH (aPTT) EC50” value in experiment [1] (UFH 0.2 U/mL in plasma) was found to be 4.26 µg/mL. Moreover, the “ENOX (FXa) EC50” value in the experiment on enoxaparin (ENOX) (setting [2]) is 1.141 µg/mL. Also, the “FONDAPX (FXa) EC50” value with fondaparinux (FONDAPX) (setting [3]) was determined as 9.463 µg/mL.
For the compound `COc1ccc(NC(=O)[C@H](CCCCN)NC(=O)c2cc(NC(=O)[C@H](CCCCN)NC(=O)c3cc(NC(=O)[C@H](CCCCN)NC(=O)c4ccc(NC(=O)[C@@H](N)CCCCN)cc4)ccc3OC)ccc2OC)cc1C(N)=O` [Compound 126], the “UFH (aPTT) EC50” value in experiment [1] (UFH 0.2 U/mL in plasma) was 9.07 µg/mL. Besides, the “ENOX (FXa) EC50” value in the experiment on enoxaparin (ENOX) (setting [2]) was found to be 0.7187 µg/mL. Also, in the experiment with fondaparinux (FONDAPX) (setting [3]), the “FONDAPX (FXa) EC50” value was more than 20 µg/mL.
Regarding `COc1ccc(NC(=O)[C@@H](CCCNC(=N)N)NC(=O)c2cc(NC(=O)[C@@H](CCCNC(=N)N)NC(=O)c3cc(NC(=O)[C@@H](CCCNC(=N)N)NC(=O)c4cc(NC(=O)[C@H](N)CC(N)=O)ccc4OC)ccc3OC)ccc2OC)cc1C(N)=O` [Compound 72], the “UFH (aPTT) EC50” value in experiment [1] (UFH 0.2 U/mL in plasma) amounted to 2.11 µg/mL. For the same compound, the “ENOX (FXa) EC50” value in the experiment on enoxaparin (ENOX) (setting [2]) was 0.22 µg/mL. Moreover, in the experiment with fondaparinux (FONDAPX) (setting [3]), the “FONDAPX (FXa) EC50” value turned out to be 1.22 µg/mL.
With `COc1ccc(NC(=O)[C@@H](CCCNC(N)=O)NC(=O)c2cc(NC(=O)[C@@H](CCCNC(=N)N)NC(=O)c3cc(NC(=O)[C@@H](CCCNC(N)=O)NC(=O)c4cc(NC(=O)[C@H](N)CCCNC(=N)N)ccc4OC)ccc3OC)ccc2OC)cc1C(N)=O` [Compound 47], the “UFH (aPTT) EC50” value in experiment [1] was found to be 3.23 µg/mL. Besides, in the experiment on enoxaparin (ENOX), the “ENOX (FXa) EC50” value was determined as 0.36 µg/mL. Moreover, the “FONDAPX (FXa) EC50” value in the experiment on fondaparinux (FONDAPX) stood at 6.52 µg/mL.
As to `COc1ccc(NC(=O)[C@H](CCCCN)NC(=O)c2cc(NC(=O)[C@H](CCCCN)NC(=O)c3cc(NC(=O)[C@H](CCCCN)NC(=O)c4cccc(N(C)C(=O)[C@@H](N)CCCCN)c4)ccc3OC)ccc2OC)cc1C(N)=O` [Compound 127], in experiment [1] (UFH 0.2 U/mL in plasma), the “UFH (aPTT) EC50” value is 2.33 µg/mL. Besides, in the experiment with enoxaparin (ENOX) (setting [2]), the “ENOX (FXa) EC50” value was more than 15 µg/mL. In addition, in the experiment on fondaparinux (FONDAPX) (setting [3]), the “FONDAPX (FXa) EC50” value was “inactive”.
For `COc1ccc(NC(=O)[C@@H](CCCNC(=N)N)NC(=O)c2cc(NC(=O)[C@@H](CCCNC(=N)N)NC(=O)c3cc(NC(=O)[C@@H](CCCNC(=N)N)NC(=O)c4cc(NC(=O)CCCCNC(=N)N)ccc4OC)ccc3OC)ccc2OC)cc1C(N)=O` [Compound 50], in that order: 1.67 µg/mL, 0.22 µg/mL and 1.12 µg/mL.
The like results for `COc1ccc(NC(=O)[C@H](CCCCCN)NC(=O)c2cc(NC(=O)[C@H](CCCCCN)NC(=O)c3cc(NC(=O)[C@H](CCCCCN)NC(=O)c4cc(NC(=O)[C@@H](N)CCCCCN)ccc4OC)ccc3OC)ccc2OC)cc1C(N)=O` [Compound 98] were, in that order, 3.14 µg/mL, 0.1731 µg/mL and “inactive”.
The like results for `COc1ccc(NC(=O)[C@@H](CCCNC(=N)N)NC(=O)c2cc(NC(=O)[C@@H](CCCNC(=N)N)NC(=O)c3cc(NC(=O)[C@@H](CCCNC(=N)N)NC(=O)c4cc(NC(=O)[C@H](N)CO)ccc4OC)ccc3OC)ccc2OC)cc1C(N)=O` [Compound 70] were, in that order, 1.55 µg/mL, 0.33 µg/mL and 1.59 µg/mL.
As for `COc1ccc(NC(=O)[C@@H](CCCNC(=N)N)NC(=O)c2cc(NC(=O)[C@@H](CCCNC(=N)N)NC(=O)c3cc(NC(=O)[C@@H](CCCNC(=N)N)NC(=O)c4cc(NC(=O)[C@H](N)CCCNC(=N)N)ccc4OC)ccc3OC)ccc2OC)cc1C(N)=O` [Compound 135], the “UFH (aPTT) EC50” value in experiment [1] (UFH 0.2 U/mL in plasma) stood at 2.79 µg/mL. For the same compound, the “ENOX (FXa) EC50” value in the experiment with enoxaparin (ENOX) (setting [2]) amounted to 0.1581 µg/mL. Moreover, in the experiment with fondaparinux (FONDAPX) (setting [3]), the “FONDAPX (FXa) EC50” value was 0.7596 µg/mL.
With `COc1ccc(NC(=O)[C@H](CCCNC(=N)N)NC(=O)c2cc(NC(=O)[C@H](CCCNC(=N)N)NC(=O)c3cc(NC(=O)[C@H](CCCNC(=N)N)NC(=O)c4cc(NC(=O)[C@H](C)NC(=O)CCCCNC(=N)N)ccc4OC)ccc3OC)ccc2OC)cc1C(N)=O` [Compound 92], in experiment [1] (UFH 0.2 U/mL in plasma), the “UFH (aPTT) EC50” value is 7.17 µg/mL. For the same compound, in the experiment on enoxaparin (ENOX) (setting [2]), the “ENOX (FXa) EC50” value was determined as 0.55 µg/mL. The “FONDAPX (FXa) EC50” value with fondaparinux (FONDAPX) (setting [3]) amounted to 1.40 µg/mL.
Consider `COc1ccc(NC(=O)[C@@H](CCCN)NC(=O)c2cc(NC(=O)[C@@H](CCCN)NC(=O)c3cc(NC(=O)[C@@H](CCCN)NC(=O)c4cc(NC(=O)[C@H](N)CCCN)ccc4OC)ccc3OC)ccc2OC)cc1C(N)=O` [Compound 40], for which the “UFH (aPTT) EC50” value in experiment [1] (UFH 0.2 U/mL in plasma) was 2.88 µg/mL. In addition, the “ENOX (FXa) EC50” value in the experiment with enoxaparin (ENOX) (setting [2]) amounted to 1.84 µg/mL. Moreover, the “FONDAPX (FXa) EC50” value with fondaparinux (FONDAPX) (setting [3]) was more than 90 µg/mL.
For `COc1ccc(NC(=O)[C@@H](CCCNC(=N)N)NC(=O)c2cccc(NC(=O)[C@@H](CCCNC(=N)N)NC(=O)c3cc(NC(=O)[C@@H](CCCNC(=N)N)NC(=O)c4cc(NC(=O)[C@H](N)CCCNC(=N)N)ccc4OC)ccc3OC)c2)cc1C(N)=O` [Compound 68], in that order: 1.99 µg/mL, 0.29 µg/mL and 4.26 µg/mL.
The like results for `COc1ccc(NC(=O)[C@H](CCCCN)NC(=O)c2cc(NC(=O)[C@H](CCCCN)NC(=O)c3cc(NC(=O)[C@H](CCCCN)NC(=O)c4cccc(NC(=O)[C@@H](N)CCCCN)c4)ccc3OC)ccc2OC)cc1C(N)=O` [Compound 91] were, in that order, 2.03 µg/mL, 0.58 µg/mL and 13.11 µg/mL.
The like results for `COc1ccc(NC(=O)[C@H](CCCNC(=N)N)NC(=O)c2cc(NC(=O)[C@H](CCCNC(=N)N)NC(=O)c3cc(NC(=O)[C@H](CCCNC(=N)N)NC(=O)c4cc(NC(=O)[C@@H](N)CCCNC(=N)N)ccc4OC)ccc3OC)ccc2OC)cc1C(N)=O` [Compound 45] were, in that order, 2.35 µg/mL, 0.23 µg/mL and 2.61 µg/mL.
As to `COc1ccc(NC(=O)[C@H](CCCCN)NC(=O)c2cc(NC(=O)[C@H](CCCCN)NC(=O)c3cc(NC(=O)[C@H](CCCCN)NC(=O)c4cc(NC(=O)[C@@H](N)CCCCN)ccc4OC)ccc3OC)ccc2OC)cc1C(=O)NCCC(=O)O` [Compound 108], in experiment [1] (UFH 0.2 U/mL in plasma), the “UFH (aPTT) EC50” value was determined as 1.50 µg/mL. For the same compound, the “ENOX (FXa) EC50” value in the experiment on enoxaparin (ENOX) (setting [2]) worked out at 0.6085 µg/mL. The “FONDAPX (FXa) EC50” value in the experiment on fondaparinux (FONDAPX) (setting [3]) was found to be 10.57 µg/mL.
For `COc1cc(OC)c(C(=O)N[C@H]2CC[C@H](NC(=O)c3cc(C(=O)NCCN(C)C)c(OCCCCCN)cc3OCCCCCN)CC2)cc1C(=O)NC1CCC(NC(=O)c2cc(C(=O)NCCN(C)C)c(OCCCCCN)cc2OCCCCCN)CC1` (stereo partly drawn) [Compound 2], in that order: 6.25 µg/mL, 2.26 µg/mL and “inactive”.
For `COc1ccc(NC(=O)[C@@H](CCCNC(=N)N)NC(=O)c2cc(NC(=O)[C@@H](CCCNC(=N)N)NC(=O)c3cc(NC(=O)[C@@H](CCCNC(=N)N)NC(=O)c4cc(NC(C)=O)ccc4OC)ccc3OC)ccc2OC)cc1C(=O)NCCN` [Compound 52], in that order: 2.13 µg/mL, 0.35 µg/mL and 1.90 µg/mL.
For `COc1ccc(NC(=O)[C@H](CCCNC(=N)N)NC(=O)c2cc(NC(=O)[C@H](CCCNC(=N)N)NC(=O)c3cc(NC(=O)[C@H](C)NC(=O)CCCCNC(=N)N)ccc3OC)ccc2OC)cc1C(N)=O` [Compound 120], in that order: 9.62 µg/mL, 1.36 µg/mL and 5.96 µg/mL.
As to `COc1cc(OC)c(C(=O)N[C@H]2CC[C@@H](NC(=O)c3cc(C(=O)NCCN(C)C)c(OCCNC(=N)N)cc3OCCNC(=N)N)CC2)cc1C(=O)N[C@H]1CC[C@@H](NC(=O)c2cc(C(=O)NCCN(C)C)c(OCCNC(=N)N)cc2OCCNC(=N)N)CC1` [Compound 105], in experiment [1] (UFH 0.2 U/mL in plasma), the “UFH (aPTT) EC50” value is “Inactive”. Also, the “ENOX (FXa) EC50” value in the experiment on enoxaparin (ENOX) (setting [2]) amounted to 2.07 µg/mL. For the same compound, the “FONDAPX (FXa) EC50” value in the experiment on fondaparinux (FONDAPX) (setting [3]) was more than 20 µg/mL.
The like results for `COc1ccc(NC(=O)[C@H](CCCCN)NC(=O)c2cc(NC(=O)[C@H](CCCCN)NC(=O)c3cc(NC(=O)[C@H](CCCCN)NC(=O)c4cc(NC(=O)[C@@H](N)Cc5c[nH]c6ccccc56)ccc4OC)ccc3OC)ccc2OC)cc1C(N)=O` [Compound 101] were, in that order, “approx 16 μg/mL”, 0.8434 µg/mL and 4.158 µg/mL.
In the case of `COc1ccc(NC(=O)[C@H](CCCCN)NC(=O)c2cc(NC(=O)[C@H](CCCCN)NC(=O)c3cc(NC(=O)[C@H](CCCCN)NC(=O)c4cc(NC(=O)[C@@H](N)CCCCN)cc(C(F)(F)F)c4)ccc3OC)ccc2OC)cc1C(N)=O` [Compound 124], in experiment [1] (UFH 0.2 U/mL in plasma), the “UFH (aPTT) EC50” value was found to be 7.39 µg/mL. The “ENOX (FXa) EC50” value with enoxaparin (ENOX) (setting [2]) was 0.418 µg/mL. In addition, the “FONDAPX (FXa) EC50” value with fondaparinux (FONDAPX) (setting [3]) was 6.94 µg/mL.
The like results for `COc1ccc(NC(=O)[C@H](CCCCN)NC(=O)c2cc(NC(=O)[C@H](CCCCN)NC(=O)c3cc(NC(=O)[C@H](CCCCN)NC(=O)c4cc(NC(=O)[C@@H](N)CCCCN)ccc4OC)ccc3OC)ccc2OC)cc1C(N)=O` [Compound 90] were, in that order, 0.9713 µg/mL, 0.093 µg/mL and 0.272 µg/mL.
As to `COc1ccc(NC(=O)[C@H](CCCCN)NC(=O)c2cc(NC(=O)[C@H](CCCCN)NC(=O)c3cc(NC(=O)[C@H](CCCCN)NC(=O)c4cc(NC(=O)[C@@H](N)CCCCN)ccc4OC)ccc3OC)ccc2OC)cc1C(=O)N[C@@H](Cc1c[nH]c2ccccc12)C(=O)O` [Compound 113], the “UFH (aPTT) EC50” value in experiment [1] (UFH 0.2 U/mL in plasma) came to 4.89 µg/mL. Besides, the “ENOX (FXa) EC50” value in the experiment on enoxaparin (ENOX) (setting [2]) came to 0.2306 µg/mL. In addition, the “FONDAPX (FXa) EC50” value with fondaparinux (FONDAPX) (setting [3]) amounted to 0.4025 µg/mL.

The record behind these values is patent US20110178104A1, “Anti-Heparin Compounds” (POLYMEDIX INC., priority 2010, published 2011).
